Results as given in the supplement of paper PMC4862054.

Legend:
Assay in all cases: normalised viability (% of control), CellTiter-Blue; higher = more viable cells (about 100 = DMSO control)
Conditions in all cases: incubation time: 72 h
DU-4475 [1] = system: DU-4475
Description: (§1)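 DSRT, CellTiter-Blue viability, 72 h incubation. Signal is normalised to DMSO and benzethonium chloride controls. Value is the normalised response at dose 8.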

CAL-85-1 [2] = system: CAL-85-1
Description: as §1

CAL-51 [3] = system: CAL-51
Description: as §1

HDQ-P1 [4] = system: HDQ-P1
Description: as §1

MDA-MB-453 [5] = system: MDA-MB-453
Description: as §1

CAL-148 [6] = system: CAL-148
Description: as §1

DU-4475 [7] = system: DU-4475; remark: listed apart in the source
Description: (§2)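 DSRT, CellTiter-Blue viability, 72 h incubation. Signal is normalised to DMSO and benzethonium chloride controls. Value is the normalised response at dose 6.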

CAL-85-1 [8] = system: CAL-85-1; remark: listed apart in the source
Description: as §2

CAL-51 [9] = system: CAL-51; remark: listed apart in the source
Description: as §2

HDQ-P1 [10] = system: HDQ-P1; remark: listed apart in the source
Description: as §2

MDA-MB-453 [11] = system: MDA-MB-453; remark: listed apart in the source
Description: as §2

CAL-148 [12] = system: CAL-148; remark: listed apart in the source
Description: as §2

DU-4475 [13] = system: DU-4475; remark: listed apart in the source
Description: (§3)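 DSRT, CellTiter-Blue viability, 72 h incubation. Signal is normalised to DMSO and benzethonium chloride controls. Value is the normalised response at dose 7.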

CAL-85-1 [14] = system: CAL-85-1; remark: listed apart in the source
Description: as §3

CAL-51 [15] = system: CAL-51; remark: listed apart in the source
Description: as §3

HDQ-P1 [16] = system: HDQ-P1; remark: listed apart in the source
Description: as §3

MDA-MB-453 [17] = system: MDA-MB-453; remark: listed apart in the source
Description: as §3

CAL-148 [18] = system: CAL-148; remark: listed apart in the source
Description: as §3

| Compound | normalised viability (DU-4475 [1]) | normalised viability (CAL-85-1 [2]) | normalised viability (CAL-51 [3]) | normalised viability (HDQ-P1 [4]) | normalised viability (MDA-MB-453 [5]) | normalised viability (CAL-148 [6]) | further results |
| --- | --- | --- | --- | --- | --- | --- | --- |
| CN1CCC(COc2cnc(-c3cccc(Cn4nc(-c5cccc(C#N)c5)ccc4=O)c3)nc2)CC1 (3000 nM) | 108% | 87.3% | 84.4% | 85.4% | 63.8% | 79.8% |  |
| CN(C)C/C=C/C(=O)Nc1cc2c(Nc3ccc(F)c(Cl)c3)ncnc2cc1O[C@H]1CCOC1 [Afatinib] (3000 nM) | 92.7% | 39.6% | 86.2% | 19.4% | 30% | 58.2% |  |
| CN1CC[C@H](c2c(O)cc(O)c3c(=O)cc(-c4ccccc4Cl)oc23)[C@H](O)C1 [Alvocidib] (3000 nM) | 1.28% | 3.02% | 4.88% | 13.7% | 7.79% | 14.4% |  |
| Nc1nc(Cl)nc2c1ncn2[C@H]1C[C@H](O)[C@@H](CO)O1 [Cladribine] (300 nM) | 102% | 92.9% | 104% | 96.3% | 96.9% | 103% |  |
| Nc1ccn([C@@H]2O[C@H](CO)[C@@H](O)[C@@H]2O)c(=O)n1 [Cytarabine] (3000 nM) | 26.1% | 70.1% | 16.4% | 86.7% | 62.5% | 34.8% |  |
| Cc1c2oc3c(C)ccc(C(=O)N[C@@H]4C(=O)N[C@H](C(C)C)C(=O)N5CCC[C@H]5C(=O)N(C)CC(=O)N(C)[C@@H](C(C)C)C(=O)O[C@@H]4C)c3nc-2c(C(=O)N[C@@H]2C(=O)N[C@H](C(C)C)C(=O)N3CCC[C@H]3C(=O)N(C)CC(=O)N(C)[C@@H](C(C)C)C(=O)O[C@@H]2C)c(N)c1=O [Dactinomycin] (300 nM) | 1.26% | 2.52% | 5.05% | 9.3% | 6.05% | 11.4% |  |
| COc1cccc2c1C(=O)c1c(O)c3c(c(O)c1C2=O)C[C@@](O)(C(=O)CO)C[C@@H]3O[C@H]1C[C@H](N)[C@H](O)[C@H](C)O1 [Doxorubicin] (300 nM) | 39.4% | 54% | 33.5% | 58% | 70.6% | 31.9% |  |
| Cc1ccc(F)c(NC(=O)Nc2ccc(-c3cccc4[nH]nc(N)c34)cc2)c1 [Linifanib] (300 nM) | 105% | 103% | 101% | 111% | 113% | 104% |  |
| COc1cc(Nc2ncc3c(n2)-c2ccc(Cl)cc2C(c2c(F)cccc2OC)=NC3)ccc1C(=O)O [MLN8237] (300 nM) |  |  |  |  |  |  | normalised viability (DU-4475 [7]): 9.79%; normalised viability (CAL-85-1 [8]): 44%; normalised viability (CAL-51 [9]): 35.9%; normalised viability (HDQ-P1 [10]): 44.1%; normalised viability (MDA-MB-453 [11]): 64.7%; normalised viability (CAL-148 [12]): 49.2% |
| COc1cc(Nc2ncc3c(n2)-c2ccc(Cl)cc2C(c2c(F)cccc2OC)=NC3)ccc1C(=O)O [MLN8237] (1000 nM) |  |  |  |  |  |  | normalised viability (DU-4475 [13]): 16.5%; normalised viability (CAL-85-1 [14]): 69.1%; normalised viability (CAL-51 [15]): 27.2%; normalised viability (HDQ-P1 [16]): 54.2%; normalised viability (MDA-MB-453 [17]): 68.9%; normalised viability (CAL-148 [18]): 36.9% |
| COc1cc(Nc2ncc3c(n2)-c2ccc(Cl)cc2C(c2c(F)cccc2OC)=NC3)ccc1C(=O)O [MLN8237] (3000 nM) | 18.3% | 69.2% | 26.2% | 58% | 60.1% | 28.8% |  |
| S=c1[nH]cnc2nc[nH]c12 [Mercaptopurine] (300 nM) |  |  |  |  |  |  | normalised viability (DU-4475 [7]): 112%; normalised viability (CAL-85-1 [8]): 83.8%; normalised viability (CAL-51 [9]): 97.8%; normalised viability (HDQ-P1 [10]): 76.6%; normalised viability (MDA-MB-453 [11]): 110%; normalised viability (CAL-148 [12]): 102% |
| S=c1[nH]cnc2nc[nH]c12 [Mercaptopurine] (3000 nM) | 114% | 83.3% | 90.1% | 88.9% | 115% | 90.8% |  |
| Clc1ccc(C(c2ccccc2Cl)C(Cl)Cl)cc1 (stereo unspecified) [Mitotane] (300 nM) |  |  |  |  |  |  | normalised viability (DU-4475 [7]): 95%; normalised viability (CAL-85-1 [8]): 94.5%; normalised viability (CAL-51 [9]): 109%; normalised viability (HDQ-P1 [10]): 92.5%; normalised viability (MDA-MB-453 [11]): 110%; normalised viability (CAL-148 [12]): 101% |
| Clc1ccc(C(c2ccccc2Cl)C(Cl)Cl)cc1 (stereo unspecified) [Mitotane] (3000 nM) | 96.2% | 94.6% | 111% | 91.7% | 113% | 103% |  |
| COc1cccc2cc(-c3nc([C@H]4CC[C@H](C(=O)O)CC4)n4ncnc(N)c34)[nH]c12 [OSI-027] (300 nM) |  |  |  |  |  |  | normalised viability (DU-4475 [7]): 82.5%; normalised viability (CAL-85-1 [8]): 75.5%; normalised viability (CAL-51 [9]): 74.3%; normalised viability (HDQ-P1 [10]): 37.9%; normalised viability (MDA-MB-453 [11]): 66.1%; normalised viability (CAL-148 [12]): 76.1% |
